Values of other authors in patent US6376242B1, “Methods and compositions for treating platelet-related disorders using MPL pathway inhibitory agents” (Emory University, priority 1999, dated 2002).

Tested on: megakaryocyte cell line
Details: in vitro

In the case of `N#C/C(=C/c1ccc(O)c(O)c1)C(=O)NCc1ccccc1` [AG-490], the “inhibition of proliferation of a megakaryocyte cell line” value is listed as “inhibit proliferation of a megakaryocyte cell line in vitro”.
